Measurements from patent US20230113037A1 (Bayer Aktiengesellschaft, priority 2019, published 2023).
Read-outs that look alike come from different tables or passages of the source.

Columns and labels:
[1] = biological target: T1, AHR (Mus musculus, UniProt P30561); test: In vitro assay 3: antagonism in mouse cell line (AHR transactivation, firefly luciferase reporter, kynurenic acid prestimulated); assay type: cell-based
T1 sequence (P30561 1-848 P471L/N533S/M589L): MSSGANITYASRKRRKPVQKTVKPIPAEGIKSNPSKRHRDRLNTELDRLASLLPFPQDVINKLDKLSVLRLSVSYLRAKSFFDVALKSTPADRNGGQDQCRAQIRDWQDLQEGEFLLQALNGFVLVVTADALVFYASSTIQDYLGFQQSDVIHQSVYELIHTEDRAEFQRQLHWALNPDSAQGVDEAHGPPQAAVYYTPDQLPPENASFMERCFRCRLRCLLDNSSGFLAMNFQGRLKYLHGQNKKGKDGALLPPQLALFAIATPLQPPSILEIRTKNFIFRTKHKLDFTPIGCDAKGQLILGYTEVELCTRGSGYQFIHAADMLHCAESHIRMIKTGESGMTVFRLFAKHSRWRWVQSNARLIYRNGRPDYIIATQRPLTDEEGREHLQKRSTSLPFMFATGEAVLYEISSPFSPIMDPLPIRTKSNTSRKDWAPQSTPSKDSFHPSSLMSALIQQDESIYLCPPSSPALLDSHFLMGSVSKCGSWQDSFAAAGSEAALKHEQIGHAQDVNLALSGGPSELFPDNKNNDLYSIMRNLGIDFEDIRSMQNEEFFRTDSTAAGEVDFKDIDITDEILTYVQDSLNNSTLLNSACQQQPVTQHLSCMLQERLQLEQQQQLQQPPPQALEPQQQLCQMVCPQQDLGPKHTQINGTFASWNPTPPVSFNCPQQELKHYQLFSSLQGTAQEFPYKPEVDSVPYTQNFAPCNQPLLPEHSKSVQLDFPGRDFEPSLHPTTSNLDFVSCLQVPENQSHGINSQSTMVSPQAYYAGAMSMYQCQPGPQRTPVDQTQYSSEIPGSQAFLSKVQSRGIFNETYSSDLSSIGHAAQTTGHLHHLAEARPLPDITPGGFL
How it was run: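 Luminescence from an AHR-dependent DRE-luciferase reporter, stably integrated in mouse cells, quantifies blockade of kynurenic acid-driven activation. Unstimulated cells mark maximal inhibition; normalization uses both control types, and multiply tested compounds carry mean or median values.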

[2] = biological target: T2, AHR (Homo sapiens, UniProt P35869); test: In vitro assay 1: antagonism in human cell line (AHR transactivation, firefly luciferase reporter, kynurenic acid prestimulated); assay type: cell-based; settings: AHR Antagonism Human IC50 [M]
T2 construct: U87 MG glioblastoma cells (ATCC #HTB-14) endogenously expressing AHR; endogenous in cells; host or cells: U87 MG glioblastoma cells (ATCC #HTB-14)
T2 sequence (P35869 11-848): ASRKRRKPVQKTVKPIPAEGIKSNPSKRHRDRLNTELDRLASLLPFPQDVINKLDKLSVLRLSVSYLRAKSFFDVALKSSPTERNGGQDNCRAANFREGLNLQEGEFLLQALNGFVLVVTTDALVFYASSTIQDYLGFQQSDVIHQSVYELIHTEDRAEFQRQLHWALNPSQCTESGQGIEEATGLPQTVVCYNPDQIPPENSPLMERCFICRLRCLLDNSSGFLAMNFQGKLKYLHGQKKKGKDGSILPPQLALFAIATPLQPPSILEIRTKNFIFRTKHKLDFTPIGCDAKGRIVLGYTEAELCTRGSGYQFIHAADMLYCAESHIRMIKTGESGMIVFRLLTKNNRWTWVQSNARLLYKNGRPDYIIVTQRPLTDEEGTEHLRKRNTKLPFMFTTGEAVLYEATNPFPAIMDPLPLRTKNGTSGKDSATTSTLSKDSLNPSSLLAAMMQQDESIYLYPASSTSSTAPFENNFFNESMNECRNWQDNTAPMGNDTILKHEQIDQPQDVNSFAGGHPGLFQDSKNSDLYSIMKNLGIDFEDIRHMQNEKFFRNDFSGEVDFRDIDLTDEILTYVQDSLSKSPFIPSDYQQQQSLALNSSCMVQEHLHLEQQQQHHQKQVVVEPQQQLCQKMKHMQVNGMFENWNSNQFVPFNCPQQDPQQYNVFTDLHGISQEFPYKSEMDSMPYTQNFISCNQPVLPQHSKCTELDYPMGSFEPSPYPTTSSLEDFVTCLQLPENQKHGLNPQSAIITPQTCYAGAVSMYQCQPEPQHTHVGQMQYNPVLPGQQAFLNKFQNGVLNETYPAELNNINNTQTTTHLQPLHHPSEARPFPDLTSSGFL
How it was run: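 Antagonism is measured against kynurenic acid prestimulation in U87 MG glioblastoma cells carrying stable DRE-luciferase and Renilla reporters. Positive inhibition control: 150 μM kynurenic acid with 5 μM staurosporine. Values are normalized to controls; repeats are averaged or given as medians.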

[3] = mouse Hepa 1c1c7 cells, 200 μM kynurenic acid, 20 hours, read-out: AHR Antagonism Mouse IC50
[4] = Hepa 1c1c7 cells, 200 μM kynurenic acid, 20 hours, firefly luciferase reporter, read-out: AHR Antagonism Mouse IC50
[5] = read-out: AHR Antagonism Mouse IC50, mouse Hepa 1c1c7 cells, 200 μM kynurenic acid, 20 hours

Question: Which IC50 [1, 3] does the source give for CCCNC(=O)[C@@H](C)Nc1nc2ccccc2c2nc(-c3ccccc3OC(F)(F)F)nn12 [Example 465, N-propyl-N^2-{2-[2-(trifluoromethoxy)phenyl][1,2,4]triazolo[1,5-c]quinazolin-5-yl}-D-alaninamide] here?
Answer: The IC50 was 3.87 nM.

Question: And the IC50 [2]?
Answer: The IC50 was 1.34e-08 M.

Question: How did the IC50 [1, 3] turn out when O=C1NCC[C@H]1Nc1nc2ccccc2c2nc(-c3cc(C(F)(F)F)ccn3)nn12 [Example 366, (3R)-3-({2-[4-(trifluoromethyl)pyridin-2-yl][1,2,4]triazolo[1,5-c]quinazolin-5-yl}amino)pyrrolidin-2-one] was run?
Answer: Its IC50 is 593 nM.

Question: And the IC50 [2]?
Answer: The IC50 was greater than 2e-05 M.

Question: Which results are given for COc1cccc(-c2nc3c4ccccc4nc(N[C@H](CC(C)C)C(=O)O)n3n2)c1 [Example 93, N-[2-(3-methoxyphenyl)[1,2,4]triazolo[1,5-c]quinazolin-5-yl]-D-leucine]?
Answer: IC50 [1, 3]: 427 nM; IC50 [2]: 1.52e-07 M

Question: Which IC50 [1, 3] does the source give for COc1ccc(-c2nc3c4cccc(C5CC5)c4nc(N[C@@H]4CCCCNC4=O)n3n2)cc1 [Example 206, (3R)-3-{[7-cyclopropyl-2-(4-methoxyphenyl)[1,2,4]triazolo[1,5-c]quinazolin-5-yl]amino}azepan-2-one] here?
Answer: Its IC50 is 7.88 nM.

Question: And the IC50 [2]?
Answer: The IC50 was 9.97e-09 M.

Question: Which results are given for COc1ccc(-c2nc3c4cccc(C5COC5)c4nc(N[C@@H]4CCCCNC4=O)n3n2)cc1 [Example 1002, (3R)-3-{[2-(4-methoxyphenyl)-7-(oxetan-3-yl)[1,2,4]triazolo[1,5-c]quinazolin-5-yl]amino}azepan-2-one]?
Answer: IC50 [1, 4]: 42 nM; IC50 ([2]; firefly luciferase reporter): 1.26e-09 M

Question: What does the source list for CCC[C@@H](Nc1nc2ccccc2c2nc(-c3ccccc3OC(F)(F)F)nn12)C(=O)NC [Example 464, N-methyl-N^2-{2-[2-(trifluoromethoxy)phenyl][1,2,4]triazolo[1,5-c]quinazolin-5-yl}-D-norvalinamide]?
Answer: IC50 [1, 3]: 3.91 nM; IC50 [2]: 5.89e-08 M

Question: Which IC50 [1, 4] does the source give for C[C@@H](Nc1nc2c(Br)cccc2c2nc(-c3cnn(C)c3)nn12)C(=O)NCCN1CCN(C(=O)OC(C)(C)C)CC1 [Example 891, tert-butyl 4-[2-({N-[7-bromo-2-(1-methyl-1H-pyrazol-4-yl)[1,2,4]triazolo[1,5-c]quinazolin-5-yl]-D-alanyl}amino)ethyl]piperazine-1-carboxylate] here?
Answer: The IC50 was 66.8 nM.

Question: And the IC50 ([2]; firefly luciferase reporter)?
Answer: The IC50 was 5.75e-08 M.

Question: What does the source list for CC[C@@H](Nc1nc2ccccc2c2nc(-c3ccc(OC)cc3C(F)(F)F)nn12)C(N)=O [Example 515, (2R)-2-({2-[4-methoxy-2-(trifluoromethyl)phenyl][1,2,4]triazolo[1,5-c]quinazolin-5-yl}amino)butanamide]?
Answer: IC50 [1, 3]: 2.06 nM; IC50 [2]: 3.17e-08 M

Question: Which IC50 [1, 3] does the source give for CN(C)c1cccc(-c2nc3c4ccccc4nc(N[C@@H]4CCCCNC4=O)n3n2)c1 [Example 446, (3R)-3-({2-[3-(dimethylamino)phenyl][1,2,4]triazolo[1,5-c]quinazolin-5-yl}amino)azepan-2-one] here?
Answer: Its IC50 is 0.51 nM.

Question: What about the IC50 [2] of the same compound?
Answer: The IC50 was 2.92e-09 M.

Question: What does the source list for COc1ccc(-c2nc3c4cccc(Br)c4nc(N[C@H]4CNCCNC4=O)n3n2)cc1 [Example 972, (6S)-6-{[7-bromo-2-(4-methoxyphenyl)[1,2,4]triazolo[1,5-c]quinazolin-5-yl]amino}-1,4-diazepan-5-one]?
Answer: IC50 [1, 4]: 7.12 nM; IC50 ([2]; firefly luciferase reporter): 3.09e-08 M

Question: Which IC50 [1, 3] does the source give for COc1ccc(-c2nc3c4cccc(OCC(C)(F)F)c4nc(N[C@@H]4CCCCNC4=O)n3n2)cc1 [Example 668, (3R)-3-{[7-(2,2-difluoropropoxy)-2-(4-methoxyphenyl)[1,2,4]triazolo[1,5-c]quinazolin-5-yl]amino}azepan-2-one] here?
Answer: Its IC50 is 271 nM.

Question: What about the IC50 [2] of the same compound?
Answer: The IC50 was greater than 5.71e-06 M.

Question: CS(=N)(=O)c1ccccc1-c1nc2c3ccccc3nc(N[C@@H]3CCCCNC3=O)n2n1 (stereo partly drawn) [Example 650, (3R)-3-({2-[2-(S-methylsulfonimidoyl)phenyl][1,2,4]triazolo[1,5-c]quinazolin-5-yl}amino)azepan-2-one] was tested. Which IC50 [1, 5] did it give?
Answer: The IC50 was 67.1 nM.

Question: What about the IC50 [2] of the same compound?
Answer: Its IC50 is 1.1e-07 M.

Question: With COCc1noc(-c2nc3c4ccccc4nc(N[C@@H]4CCCCNC4=O)n3n2)n1 [Example 303, (3R)-3-({2-[3-(Methoxymethyl)-1,2,4-oxadiazol-5-yl][1,2,4]triazolo[1,5-c]quinazolin-5-yl}amino)azepan-2-one] as the compound, how does the IC50 [1, 3] read?
Answer: The IC50 was 293 nM.

Question: And the IC50 [2]?
Answer: Its IC50 is 4.52e-07 M.

Question: How did the IC50 [1, 3] turn out when Cc1n[nH]c(C)c1-c1nc2c3ccccc3nc(N[C@@H]3CCCCNC3=O)n2n1 [Example 536, (3R)-3-{[2-(3,5-dimethyl-1H-pyrazol-4-yl)[1,2,4]triazolo[1,5-c]quinazolin-5-yl]amino}azepan-2-one] was run?
Answer: Its IC50 is 94.7 nM.

Question: What about the IC50 [2] of the same compound?
Answer: Its IC50 is 8.6e-08 M.

Question: How did the IC50 [1, 3] turn out when O=C1NCCCC[C@H]1Nc1nc2c(C(F)(F)F)cccc2c2nc(-c3cnn(C4CCC4)c3)nn12 [Example 741, (3R)-3-{[2-(1-cyclobutyl-1H-pyrazol-4-yl)-7-(trifluoromethyl)[1,2,4]triazolo[1,5-c]quinazolin-5-yl]amino}azepan-2-one] was run?
Answer: The IC50 was 1.41 nM.

Question: And the IC50 [2]?
Answer: The IC50 was 7.02e-10 M.

Question: How did the IC50 [1, 4] turn out when CC(C)n1cc(-c2nc3c4cccc(C5CC5)c4nc(N[C@@H]4CNCCNC4=O)n3n2)cn1 [Example 955, (6R)-6-({7-cyclopropyl-2-[1-(propan-2-yl)-1H-pyrazol-4-yl][1,2,4]triazolo[1,5-c]quinazolin-5-yl}amino)-1,4-diazepan-5-one] was run?
Answer: The IC50 was 452 nM.

Question: What about the IC50 ([2]; firefly luciferase reporter) of the same compound?
Answer: Its IC50 is 5.57e-08 M.

Question: For Cc1ccccc1-c1nc2c3ccccc3nc(NC3CCNC3=O)n2n1 (single isomer, unassigned) [Example 51, 3-{[2-(2-methylphenyl)[1,2,4]triazolo[1,5-c]quinazolin-5-yl]amino}pyrrolidin-2-one], which IC50 [1, 3] is on record?
Answer: The IC50 was 131 nM.

Question: What about the IC50 [2] of the same compound?
Answer: The IC50 was 3.09e-08 M.

Question: Cc1[nH]ncc1-c1nc2c3ccccc3nc(N[C@@H]3CCCCNC3=O)n2n1 [Example 609, (3R)-3-{[2-(5-methyl-1H-pyrazol-4-yl)[1,2,4]triazolo[1,5-c]quinazolin-5-yl]amino}azepan-2-one] was tested. Which IC50 [1, 3] did it give?
Answer: The IC50 was 324 nM.

Question: What about the IC50 [2] of the same compound?
Answer: Its IC50 is 1.57e-07 M.

Question: Which IC50 [1, 5] does the source give for CC[C@H](Nc1nc2c(Br)cccc2c2nc(-c3ccc(OC)cc3OC(F)(F)F)nn12)C(N)=O [Example 568, (2S)-2-({7-bromo-2-[4-methoxy-2-(trifluoromethoxy)phenyl][1,2,4]triazolo[1,5-c]quinazolin-5-yl}amino)butanamide] here?
Answer: Its IC50 is 29.9 nM.

Question: What about the IC50 [2] of the same compound?
Answer: The IC50 was 3.31e-07 M.

Question: Cc1sccc1-c1nc2c3ccccc3nc(N[C@H]3CCCCNC3=O)n2n1 [Example 347] was tested. Which IC50 [1, 3] did it give?
Answer: Its IC50 is 4.28 nM.

Question: And the IC50 [2]?
Answer: Its IC50 is 1.17e-07 M.

Question: Which IC50 [1, 3] does the source give for O=C1NCCCC[C@H]1Nc1nc2c(Cl)cccc2c2nc(-c3cccc(F)c3)nn12 [Example 555, (3R)-3-{[7-chloro-2-(3-fluorophenyl)[1,2,4]triazolo[1,5-c]quianzolin-5-yl]amino}azepan-2-one] here?
Answer: The IC50 was 6.92 nM.

Question: And the IC50 [2]?
Answer: The IC50 was 1.82e-08 M.

Question: What does the source list for O=C1NCCCC[C@H]1Nc1nc2ccccc2c2nc(-c3ccc(Cl)cc3OC(F)(F)F)nn12 [Example 517, (3R)-3-({2-[4-chloro-2-(trifluoromethoxy)phenyl][1,2,4]triazolo[1,5-c]quinazolin-5-yl}amino)azepan-2-one]?
Answer: IC50 [1, 3]: 2.31 nM; IC50 [2]: 1.47e-09 M
